We go through one substance from US20060052297A1, “Method of up-regulating tumor antigen expression using thymalfasin” (priority 2002, published 2006).

Data set [1] can be described thus: Safety of thymalfasin in humans. The class given is in vivo, human. As to the method:
(§1) TLP expression-enhancing amounts of thymalfasin peptide can be determined by routine dose-titration experiments. Up-regulation of TLP can be achieved in vivo by administration of between 2 μg/kg and 6 mg/kg body weight of thymalfasin, preferably between 20 μg/kg and 200 μg/kg.

Data set [2] in a line: Safety of thymalfasin in rats. The format is in vivo, rat. As to the method: as §1
For data set [3] the following is noted: subcutaneously injected; Rost, et al., 1998; cited from earlier work.

Some results are limits rather than exact numbers.

Turning to “Ac-SDAAVDTSSEITTKDLKEKKEVVEEAEN-OH [thymalfasin]”, the “dose found to be safe” value is recorded as at most 16 mg/dose/day in data set [1] and at most 6 mg/kg/day in data set [2]. The plasma half-life entry in data set [3] is reported as “about 2 hours”.
